Laboratory results taken from patent publication US12503432B2, “Ionizable lipids for nucleic acid delivery” (Global Life Sciences Solutions Canada ULC, priority 2019, dated 2025).

Key:
primary human T cells [1] = test: EPO mRNA LNP delivery to primary human T cells, Quantikine IVD Human Epo ELISA; type: cell-based
Method: Reagents were acquired from Quantikine, Minneapolis, MN. The assay was performed as directed on the Quantikine® IVD® ELISA Human Erythropoietin Immunoassay protocol in the package insert. Briefly; primary human T cells were isolated from fresh whole blood using a negative selection protocol and activated using a triple activator. Seven days post-activation, T cells were dosed with mRNA LNPs encoding EPO at […] mRNA per 500,000 cells and N/P 10. After 48 h of exposure, the T cells were harvested and lysed for cytosolic EPO and media supernatant was sampled for secreted EPO. Quantikine® Human Serum Controls were used.

C57BL/6 mice = test: In vivo delivery of OVA-encoded mRNA LNP via intramuscular administration, anti-OVA-IgG ELISA of serum; details: 5 μg OVA mRNA i.m. on Day 1 and 10, serum 2 weeks post second immunization, versus 50 ug OVA protein, FIG. 10
Method: A lipid mixture of LM02b composition in ethanol was mixed with a low pH buffered solution of Ova mRNA at an N/P ratio of 8 using a NanoAssemblr® Ignite™ microfluidic mixer. The LNP were downstream processed using the Amicon™ ultra filtration technique and characterized for size, PDI and encapsulation efficiency. Size and PDI were measured using dynamic light scattering techniques, and nucleic acid encapsulation efficiency was calculated from a modified Quant-iT RiboGreen™ RNA assay. The hydrodynamic diameter of these mRNA-LNPs was ˜76 nm with a polydispersity index of 0.01 to 0.12 and an encapsulation efficiency of ˜95%
All animals were handled according to the Institutional Animal Care and Use Committee ethics protocols. For experiments, 6-8 week old C57BL/6 mice (n=4) were purchased from Envigo. […] Aliquots of serum samples were thawed and analyzed at appropriate dilutions for Ova expression and for IgG measurements using standard ELISA techniques.
Anti-OVA-IgG ELISA of serum samples: Sera from the immunized mice were collected at 2 weeks post second immunization. OVA—specific production of IgG in response to OVA-encoded mRNA in various LNPs were measured by ELISA as described supra. […] After 30 minutes of incubation, a stop solution of 2 N sulphuric acid was added and a plate reader was used to determine absorbance at 450 nm. […]

primary human T cells [2] = test: CD19 CAR mRNA LNP expression in isolated primary human T cells; type: cell-based; details: CT10, N/P 8, transfected T cells in vitro, FIG. 9
Method: FIG. 9 are two illustrations of CD19 CAR expression levels in isolated primary human T cells mediated by mRNA CT10 N/P 8 LNPs containing PNI 545, PNI 516, PNI132, PNI 542, PNI 565 incorporating CD19 CAR (chimeric antigen receptor) mRNA. Geometric mean fluorescence intensity of anti-CD19-PE fluorophore (top bar graph) and CD19 CAR positive T cell population (bottom histogram) were measured by flow cytometry 24 hours following LNP addition with 500 ng of encapsulated mRNA per 125,000 T cells 3 days after triple activation;
CD19 CAR expression in isolated primary human T cells mediated by mRNA-LNPs containing IL with CT10 composition at N/P 8 was assayed after in vitro exposure. The CAR vector pcDNA3.1 anti-CD19-h(BB Lambda)-EGFP-2nd-CAR (T7 Mut) 7661 bp was purchased from Creative BioLabs, NY, USA.
T cells were isolated from whole blood using a negative isolation procedure and T cell activation, and expansion was carried out by triple activation in ImmunoCult™ Human T Cell Expansion Media as described supra.

[3] = primary human T cells, 48 hours

SMILES: CC/C=C\CC1C(CC(=O)OCC(COCCCCCCCC/C=C\C/C=C\CCCCC)OCCCCCCCC/C=C\C/C=C\CCCCC)CCC1OC(=O)CCCN(C)C (centres unmarked) [PNI 101]
- cytosolic EPO (primary human T cells [1]; T cell lysate, 48 h exposure, N/P 10, FIG. 5): no cytosolic EPO
- secreted EPO (primary human T cells [1]; media supernatant, 48 h exposure, N/P 10, FIG. 5): about 1016 mlU/mL
- EPO expression mediated by LNPs versus MC3 (primary human T cells [1]; [3]): higher than those containing MC3
- Fold increase in EPO concentration relative to MC3 (primary human T cells [1]; [3]): 1.87
- EPO concentration (mIU/mL), 48 hours (primary human T cells [1]; primary human T cells, 48 hours, EPO mRNA LNP, N/P 10): 1016.0 mIU/mL

SMILES: CC/C=C\CC1C(CC(=O)OCC(COCCCCCCCC/C=C\C/C=C\CCCCC)OCCCCCCCC/C=C\C/C=C\CCCCC)CCC1OC(=O)C1(C)CCN(C)CC1 (centres unmarked) [PNI 123]
- OVA-specific IgG response (C57BL/6 mice): the same or higher IgG response as that of a 10 fold higher dose of OVA protein

SMILES: CC/C=C\CC1C(CC(=O)OCC(COCCCCCCCC/C=C\C/C=C\CCCCC)OCCCCCCCC/C=C\C/C=C\CCCCC)CCC1OC(=O)C1CCN(C)CC1 (centres unmarked) [PNI 132]
- OVA-specific IgG response (C57BL/6 mice): the same or higher IgG response as that of a 10 fold higher dose of OVA protein

SMILES: CC/C=C\CC1C(CC(=O)OCCC(CCCCCCCC)OC(=O)C(CCCCCC)CCCCCCCC)CCC1OC(=O)C1(C)CCN(C)CC1 (centres unmarked) [PNI 565]
- CD19 CAR expression (primary human T cells [2]): greater than MC3 LNP
